Values of other authors in patent publication US9750812B2, “Lipid based pharmaceutical preparations for oral and topical application; their compositions, methods, and uses thereof” (JINA PHARMACEUTICALS, INC., priority 2008, dated 2017).

solubility in organic solvents (organic solvents such as ethanol and methanol): soluble
solubility in water (water): practically insoluble
SMILES: CC(C)(C)NC(=O)[C@H]1CC[C@H]2[C@@H]3CC[C@H]4NC(=O)C=C[C@]4(C)[C@H]3CC[C@]12C [finasteride, (5α, 17β)-N-(1,1-dimethylethyl)-3-oxo-4-azaandrost-1-ene-17-carboxamide]
